Source: patent publication US10525144B2, “Selective targeting of an anti-inflammatory receptor in human mitochondria and preservation of mitochondrial functions” (THE JOHNS HOPKINS UNIVERSITY, priority 2014, dated 2020)
Ends that are not written are not given here. * marks the point of attachment. 5FAM = O=C1OC2(c3ccc(O)cc3Oc3cc(O)ccc32)c2ccc(C(=O)*)cc21

Key:
mitochondrial function = assay: Effect of Losartan on mitochondrial function
Excerpt: (§1) The inventors recently discovered functional mitochondrial Angiotensin receptors (mtAT1R and mtAT2R) that shift to an increased mtAT1R/mtAT2R ratio with aging. One of the protective benefits of Angiotensin (Ang) receptor type 1 (AT1R) blockers, such as Losartan (LOS), arises from its systemic effects on blood pressure and remodelling. […] Therefore, angiotensin receptor blockers such as Losartan have utility beyond hypertension treatment; angiotensin receptor blockers can be used in the treatment of conditions relevant to older adults.

skeletal muscle = assay: Skeletal muscle healing and disuse atrophy in older mice; type: in vivo; conditions: high doses
Excerpt: as §1

mitochondria = assay: Confocal fluorescence microscopy of cellular localization of the conjugate in rat cells (FIG. 3); type: cell-based
Experimental: FIG. 3 contains confocal fluorescence microscopy images of rat liver cells incubated with MTS1-Ls-5-FAM for 24 hrs.
The MTS1-Ls-5-FAM conjugate was transfected into rat cells and incubated for 24 hours before confocal fluorescence microscopy was performed to ascertain cellular localization. Cells were co-stained with Mitotracker-Red and Hoescht 33342 for the mitochondria and nuclei, respectively.

[1] = test system: mitochondria of cardiac cells; assay: Co-localization with mitochondria of cardiac cells (FIG. 7); type: cell-based
[2] = test system: mitochondrial membrane potential; assay: Quantification of mitochondrial membrane potential based on TMRE localization in cardiac cells (FIG. 8); type: cell-based; conditions: treated vs control, FIG. 8 panels E and F
Excerpt: FIG. 8 consists of panels A-J. Panels A and B are images showing quantification of mitochondrial membrane potential based on TMRE localization in control (panel A) and MTS1-Ls-5-FAM-treated (panel B) cardiac cells. TMRE localizes in the mitochondria, and based on the intensity of the TMRE dye, the mitochondrial membrane potential can be calculated (panel C).

## CCCCc1nc(Cl)c(CO)n1Cc1ccc(-c2ccccc2-c2nn[nH]n2)cc1 [LOS, Losartan]
Mitochondrial function
  mitochondrial function: improved
Skeletal muscle
  disuse atrophy: prevent disuse atrophy
  skeletal muscle healing: accelerate skeletal muscle healing

## MTS1-Ls-5-FAM (MLRAALSTARRGPRLSRLLCK(5FAM); not fully specified (C-terminus); printed as MLRAALSTARRGPRLSRLLCK(Mtt); also: losartan conjugated, site not given here)
mitochondria; rat cells, incubated 24 hours, co-stained with Mitotracker-Red and Hoescht 33342
  localization of the conjugate with the mitochondria: greater than 80%
mitochondria; rat liver cells incubated 24 hrs, FIG. 3 panel (d)
  localization in merged confocal image: localization of MTS1-Ls-5-FAM within the mitochondria
[1]; FIG. 7 panels A and B
  co-localization with mitochondria (images): positive co-localization
[1]; relative to the scrambled MTS1-Ls-5-FAM, FIG. 7 panel C
  co-localization with mitochondria by Pearson coefficient: significantly more co-localized
[1]; relative to the scrambled MTS1-Ls-5-FAM, FIG. 7 panel D
  co-localization with mitochondria by Mander's coefficient: significantly more co-localized
[2]
  maximum TMRE intensity per pixel: no significant difference
